From paper PMC8236048, “Pharmaceutical design of a delivery system for the bacteriocin lacticin 3147” (Drug Delivery and Translational Research, 2021)

Experiments:
[1] = tested on: L. monocytogenes ATCC1916; assay: Well diffusion assay after incubation with α-chymotrypsin; assay type: cell-based
Description: α-SLN and β-SLN were filtered using a 0.2-µm PES filter, and 25 µl of each were added to the same well of a 96-well plate. About 50 µl of a 50 mg/ml solution of α-chymotrypsin was added to these wells. A blank was set up with 50-µl water instead of α-chymotrypsin. This was repeated for free peptide solutions prepared as outlined above. The 96-well plate was incubated for 3 h at 37 °C. The 96-well plate was then removed from the incubator, and 25 µl of each solution was added in triplicate to 6-mm wells on TSA (6 g/L yeast) plates inoculated with 200 µl L. monocytogenes ATCC1916. The plates were incubated at 37 °C for 24 h, after which the inhibition zones were measured using an electronic Vernier callipers.

[2] = tested on: L. monocytogenes ATCC 1916; assay: Growth curve bioactivity assay versus L. monocytogenes ATCC 1916; assay type: cell-based; settings: 0.5 h, 37 °C, 300 rpm, 0.2 µm PES filtered, growth curve 24 h
Description: An overnight culture of L. monocytogenes ATCC1916 was grown in TSB media supplemented with 6 g/L yeast at 37 °C. Freeze-dried Ltnα and Ltnβ were resuspended individually in 70% IPA to make a 1-mg/ml solution and filtered through a 0.2-µm filter (polyethersulfone) PES filter. They were then diluted in sterile PBS to a final peptide concentration of 50 µg/ml. Peptide solutions were added in triplicate to a 96-well plate with sufficient PBS to give a volume of 50 µl. 150 µl of diluted bacterial cell culture (optical density (OD) of 0.1 at 595 nm) was then added to the wells. Final peptide concentrations of 150 nM (0.50 µg/ml Ltnα, 0.43 µg/ml Ltnβ), 300 nM (0.99 µg/ml Ltnα, 0.85 µg/ml Ltnβ), and 400 nM (1.31 µg/ml Ltnα, 1.14 µg/ml Ltnβ) were obtained when the wells were filled to 200 µl. Blanks were set up in triplicate with media only and PBS only. The three control wells were also set up with bacterial culture and PBS only. The 96-well plate was incubated in a Biotek ELx808 Ultra microplate reader at 37 °C for 24 h. Readings were taken at a wavelength of 590 nm every 30 min for 24 h with the plate shaken mildly before each reading.
An excess quantity of freeze-dried Ltnα and Ltnβ were resuspended individually in PBS buffer/FaSSGF/FaSSIF. The samples were then incubated for 0.5 h at 37 ± 0.5 °C with stirring at 300 rpm. At the end of the incubation period, samples were filtered through a 0.2-µm PES syringe filter and employed in the in vitro activity assay. Briefly, 25 µl of each of the filtered peptide solutions were added in triplicate to the same wells of a 96-well plate. Three control wells were set up containing 50 µl of PBS alone. 150 μl of L. monocytogenes ATCC 1916 with an OD of 0.1 at 595 nm was added to each well. The 96-well plate was then incubated in a Biotek ELx808 Ultra microplate reader at 37 °C for 24 h. The readings were taken as previously described.

[3] = tested on: L. monocytogenes ATCC1916; assay: Well diffusion assay, lacticin 3147 SLNs vs free peptide; assay type: cell-based; settings: 6-mm wells, 12.5 µL α + 12.5 µL β component, 0.2 µm filtered, free peptide in water at the total peptide content of the SLNs, mean ± SD
Description: The activity of the lacticin 3147 SLNs was evaluated using the well diffusion assay method, on TSA supplemented with 6 g/L yeast. The inhibition zones were reported in millimetre (mm) using electronic Vernier callipers. […] Wells were bored in the agar after it hardened using a sterile 6-mm cork borer. α-SLN and β-SLN were filtered using a 0.2-μm PES filter (SLNs can pass through), and 12.5 μL of each was added to the same well. The blank SLNs were used as negative controls (25 μL). […] The free peptides were filtered again using a 0.2-μm PES filter before addition to the wells to ensure sterility. All tests were performed in triplicate.

[4] = tested on: methicillin-resistant S. aureus (MRSA); settings: cited from earlier work
Source text: (§1) Approximately 223,900 C. difficile infections and 12,800 resulting deaths were reported in the USA in 2017 [17]. Treatment failures and recurrences of infection after the use of antibiotics are increasingly common, with a 2–38% failure rate for vancomycin and 8–50% for metronidazole. A more virulent strain of C. d ...

L. monocytogenes = settings: cited from earlier work
Source text: as §1

C. difficile = settings: antimicrobial-resistant bacteria; cited from earlier work
Source text: as §1

eukaryotic cells = settings: cited from earlier work
Source text: as §1

L. lactis HP = settings: at a neutral pH; cited from earlier work
Source text: Lacticin 3147 is a two-peptide (Ltnα and Ltnβ) bacteriocin produced by Lactococcus lactis DPC6577 (Fig. 1). It is classified as a lantibiotic due to the presence of lanthionine rings in its structure. The two peptides act synergistically, targeting lipid II, a precursor of peptidoglycan synthesis in Gram-positive bacteria, leading to inhibition of cell wall synthesis, pore formation, and eventual cell death. […] These masses correspond with those previously reported in the literature. Lacticin 3147′s activity against various strains including L. monocytogenes and C. difficile has been previously reported in the literature; however, for the purpose of this study, L. monocytogenes was used to establish the impact of solution composition, pH, and process ...

With lacticin 3147 the “zone of inhibition after incubation with α-chymotrypsin, single well” value (“zone of inhibition after incubation” below) ([1]; Fig. 11, first value printed in the picture of the plate) was 6 mm, the “zone of inhibition after incubation” value ([1]; Fig. 11, second value printed in the picture of the plate) was 6.1 mm and the “zone of inhibition after incubation” value ([1]; Fig. 11, third value printed in the picture of the plate) was 6 mm. The “activity against L. monocytogenes ATCC 1916 after addition in excess to FaSSGF and filtration” value ([2]; FaSSGF (pH 1.6)) was “active”, the “activity against L. monocytogenes ATCC 1916 after addition in excess to FaSSIF and filtration” value ([2]; FaSSIF (pH 6.5)) was “active” and the “activity against L. monocytogenes ATCC 1916 after addition in excess to PBS and filtration” value ([2]; PBS (pH 7.4)) was “active”. For the same substance, the zone of inhibition [3] was 12.9 ± 0.3 mm, the “activity against methicillin-resistant S. aureus (MRSA)” value [4] was “active at nanomolar concentrations” and the “activity against L. monocytogenes” value (L. monocytogenes) was “active at nanomolar concentrations”. The “activity against C. difficile” value (C. difficile) was “active at nanomolar concentrations”, the “toxicity to eukaryotic cells” value (eukaryotic cells) was “non-toxic” and the “activity against L. lactis subsp. cremoris HP” value (L. lactis HP) was “active”.
